Test results taken from patent publication US7939556B2, “Imidazole derivatives and their use for modulating the GABAA receptor complex” (Neurosearch A/S, priority 2005, dated 2011).

Target: benzodiazepine modulatory unit of the GABAA receptor complex
Experiment: In vitro inhibition of 3H-flunitrazepam (3H-FNM) binding
Conditions: inhibition of specific binding of 3H-FNM (1 nM), rat cerebral cortex membranes, 40 min at 2° C.
Description: In Vitro Inhibition of ^3H-Flunitrazepam (^3H—FNM) Binding
The GABA recognition site and the benzodiazepine modulatory unit can selectively be labelled with ^3H-flunitrazepam.
Preparations are performed at 0-4° C. unless otherwise indicated. Cerebral cortex from male Wistar rats (150-200 g) is homogenised for 5-10 sec in 20 ml Tris-HCl (30 mM, pH 7.4) using an Ultra-Turrax homogeniser. The suspension is centrifuged at 27,000×g for 15 min and the pellet is washed three times with buffer (centrifuged at 27,000×g for 10 min). The washed pellet is homogenized in 20 ml of buffer and incubated on a water bath (37° C.) for 30 min to remove endogenous GABA and then centrifuged for 10 min at 27,000×g. The pellet is then homogenized in buffer and centrifuged for 10 min at 27,000×g. The final pellet is resuspended in 30 ml buffer and the preparation is frozen and stored at −20° C.
The membrane preparation is thawed and centrifuged at 2° C. for 10 min at 27,000×g. The pellet is washed twice with 20 ml 50 mM Tris-citrate, pH 7.1 using an Ultra-Turrax homogeniser and centrifuged for 10 min at 27,000×g. The final pellet is resuspended in 50 mM Tris-citrate, pH 7.1 (500 ml buffer per g of original tissue), and then used for binding assays. Aliquots of 0.5 ml tissue are added to 25 μl of test solution and 25 μl of ^3H—FNM (1 nM, final concentration), mixed and incubated for 40 min at 2° C. Non-specific binding is determined using Clonazepam (1 μM, final concentration). After incubation the samples are added 5 ml of ice-cold buffer and poured directly onto Whatman GF/C glass fibre filters under suction and immediately washed with 5 ml ice-cold buffer. The amount of radioactivity on the filters is determined by conventional liquid scintillation counting. Specific binding is total binding minus non-specific binding.
25-75% inhibition of specific binding must be obtained, before calculation of an IC50.
The test value will be given as IC50 (the concentration (μM) of the test substance which inhibits the specific binding of ^3H—FNM by 50%).
Co is specific binding in control assays, and […]

IC50 [nM] | Structure (SMILES)
180 | COC(=O)c1cn(-c2cccc([N+](=O)[O-])c2)cn1 [Compound 20, 1-(3-Nitro-phenyl)-1H-imidazole-4-carboxylic acid methyl ester]
24 | CCOC(=O)c1cn(-c2cccc(COCc3ccccn3)c2)cn1 [Compound 11a, 1-[3-(Pyridin-2-ylmethoxymethyl)-phenyl]-1H-imidazole-4-carboxylic acid ethyl ester]
24 | CCOC(=O)c1cn(-c2cccc(Br)c2)cn1 [Compound 16, 1-(3-Bromo-phenyl)-1H-imidazole-4-carboxylic acid ethyl ester]
